Test results: ChEMBL document CHEMBL5365534, “Discovery of a Novel Ketohexokinase Inhibitor with Improved Drug Distribution in Target Tissue for the Treatment of Fructose Metabolic Disease” (J Med Chem, 2023)
pIC50: −log10 of the molar value.

Assays:
[1] = Drug metabolism in mouse hepatocytes assessed as glycine conjugation metabolite at 10 uM measured upto 240 mins by LC-MS/MS analysis; format: ADME, cell-based, Hepatocyte; conditions: 4 h
[2] = MRT (0 to t) in Beagle dog at 5 mg/kg, po administered as single dose measured upto 24 hrs by LC-MS/MS analysis; format: ADME, organism-based, Canis lupus familiaris; conditions: in vivo
[3] = MRT (0 to t) in Beagle dog at 1 mg/kg, iv administered as single dose measured upto 24 hrs by LC-MS/MS analysis; format: ADME, organism-based, Canis lupus familiaris; conditions: in vivo
in vivo = conditions: Sprague-Dawley, rat, kidney, po, 10 mg/kg
Description: Drug concentration in Sprague-Dawley rat kidney at 10 mg/kg, po administered as single dose measured upto 24 hrs by LC-MS/MS analysis

[4] = Drug metabolism in dog hepatocytes assessed as glycine conjugation metabolite at 10 uM measured upto 240 mins by LC-MS/MS analysis; format: ADME, cell-based, Canis lupus familiaris, Hepatocyte; conditions: 4 h
[5] = AUC (0 to t) in Beagle dog at 1 mg/kg, iv administered as single dose measured upto 24 hrs by LC-MS/MS analysis; format: ADME, organism-based, Canis lupus familiaris; set-up: dose 1 mg/kg, time < 24 hrs, route iv; conditions: in vivo
[6] = Metabolic stability in human hepatocyte assessed as parent compound remaining at 10 uM measured after 4 hrs by LC-MS/MS analysis; format: ADME, cell-based; conditions: hepatocytes, read-out: Stability
Ketohexokinase = target: T1, Ketohexokinase (Homo sapiens, UniProt P50053)
T1 sequence (P50053 whole entry): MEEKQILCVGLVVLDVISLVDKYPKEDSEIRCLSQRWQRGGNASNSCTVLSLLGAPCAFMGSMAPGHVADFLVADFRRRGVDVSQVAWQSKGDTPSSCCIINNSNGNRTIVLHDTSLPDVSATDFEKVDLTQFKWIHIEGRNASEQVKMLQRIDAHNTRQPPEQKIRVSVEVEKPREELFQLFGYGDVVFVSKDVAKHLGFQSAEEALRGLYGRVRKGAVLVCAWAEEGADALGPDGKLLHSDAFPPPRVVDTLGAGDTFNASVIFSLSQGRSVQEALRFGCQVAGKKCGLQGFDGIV
Description: Inhibition of N-terminal his tagged human recombinant KHK-C expressed in Escherichia coli incubated for 60 mins in presence of ATP by ADP Glo assay

in vitro [7] = conditions: mouse, hepatocytes
Cytochrome P450 3A4 = Cytochrome P450 3A4 (Homo sapiens, UniProt P08684)
Cytochrome P450 3A4, sequence (P08684 whole entry): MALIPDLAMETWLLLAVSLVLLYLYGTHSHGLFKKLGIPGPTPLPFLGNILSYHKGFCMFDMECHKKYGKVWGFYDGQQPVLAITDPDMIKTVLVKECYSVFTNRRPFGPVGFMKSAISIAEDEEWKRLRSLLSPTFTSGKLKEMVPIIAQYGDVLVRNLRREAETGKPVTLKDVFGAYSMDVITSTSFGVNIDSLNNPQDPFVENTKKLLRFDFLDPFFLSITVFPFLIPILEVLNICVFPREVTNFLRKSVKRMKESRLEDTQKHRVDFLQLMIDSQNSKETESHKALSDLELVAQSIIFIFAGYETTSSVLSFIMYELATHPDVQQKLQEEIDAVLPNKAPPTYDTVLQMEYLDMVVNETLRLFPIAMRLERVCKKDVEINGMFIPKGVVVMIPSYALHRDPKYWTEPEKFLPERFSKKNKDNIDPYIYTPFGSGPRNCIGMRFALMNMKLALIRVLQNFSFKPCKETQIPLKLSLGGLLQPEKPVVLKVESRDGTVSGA
Description: Inhibition of CYP3A4 in human liver microsomes at 0.1 to 30 uM measured for 5 mins in presence of NADPH by LC-MS/MS analysis

[8] = Oral bioavailability in Sprague-Dawley rat at 10 mg/kg administered as single dose measured upto 24 hrs by LC-MS/MS analysis; format: ADME, organism-based; conditions: in vivo
in vitro [9] = conditions: rat, plasma
Description: Fraction unbound in rat plasma

Cytochrome P450 2C9 = Cytochrome P450 2C9 (Homo sapiens, UniProt P11712)
Cytochrome P450 2C9, sequence (P11712 whole entry): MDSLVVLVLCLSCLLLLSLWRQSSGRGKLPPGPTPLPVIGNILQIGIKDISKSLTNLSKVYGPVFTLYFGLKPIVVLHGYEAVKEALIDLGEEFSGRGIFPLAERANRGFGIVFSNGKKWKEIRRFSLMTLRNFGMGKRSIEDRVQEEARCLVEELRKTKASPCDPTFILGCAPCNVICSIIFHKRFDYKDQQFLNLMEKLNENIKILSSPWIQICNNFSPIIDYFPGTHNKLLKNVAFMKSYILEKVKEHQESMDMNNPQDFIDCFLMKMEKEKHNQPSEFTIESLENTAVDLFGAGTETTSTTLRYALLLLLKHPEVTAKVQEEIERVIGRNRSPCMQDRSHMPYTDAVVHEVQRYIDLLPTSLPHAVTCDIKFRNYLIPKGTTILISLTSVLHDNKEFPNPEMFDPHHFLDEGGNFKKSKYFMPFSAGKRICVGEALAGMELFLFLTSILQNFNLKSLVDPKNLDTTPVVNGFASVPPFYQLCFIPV
Description: Inhibition of CYP2C9 in human liver microsomes at 0.1 to 30 uM measured for 5 mins in presence of NADPH by LC-MS/MS analysis

[10] = Drug metabolism in rat hepatocytes assessed as glycine conjugation metabolite at 10 uM measured upto 240 mins by LC-MS/MS analysis; format: ADME, cell-based, Hepatocyte; conditions: 4 h
Cytochrome P450 2D6 = Cytochrome P450 2D6 (Homo sapiens, UniProt P10635); experiment: Time dependent inhibition of CYP2D6 in human liver microsomes at 10 uM preincubated for 30 mins followed by substrate addition and measured after 15 mins in presence of NADPH by LC-MS/MS analysis; format: ADME, Microsome
Cytochrome P450 2D6, sequence (P10635 whole entry): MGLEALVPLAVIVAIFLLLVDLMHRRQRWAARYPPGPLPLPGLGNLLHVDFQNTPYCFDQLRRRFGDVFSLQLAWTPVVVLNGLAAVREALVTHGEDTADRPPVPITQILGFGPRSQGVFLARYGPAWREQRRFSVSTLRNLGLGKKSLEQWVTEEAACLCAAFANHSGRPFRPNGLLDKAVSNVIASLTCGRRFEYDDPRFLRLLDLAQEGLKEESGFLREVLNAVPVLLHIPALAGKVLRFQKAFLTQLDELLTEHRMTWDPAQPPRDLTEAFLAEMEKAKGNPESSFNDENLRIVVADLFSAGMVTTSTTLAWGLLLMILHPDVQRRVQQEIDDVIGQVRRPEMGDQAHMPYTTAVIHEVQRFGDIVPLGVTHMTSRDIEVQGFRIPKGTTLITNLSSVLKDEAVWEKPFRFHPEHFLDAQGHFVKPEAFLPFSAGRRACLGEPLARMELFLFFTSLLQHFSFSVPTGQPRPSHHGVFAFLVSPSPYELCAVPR

in vitro [11] = conditions: rhesus monkey, hepatocytes
[12] = AUC (0 to infinity) in Beagle dog at 5 mg/kg, po administered as single dose measured upto 24 hrs by LC-MS/MS analysis; format: ADME, organism-based, Canis lupus familiaris; set-up: time < 24 hrs, dose 5 mg/kg, route po; conditions: in vivo
[13] = Drug metabolism in rat hepatocytes assessed as oxidation/hydrogenation/decarboxylation metabolite at 10 uM measured upto 240 mins by LC-MS/MS analysis; format: ADME, cell-based, Hepatocyte; conditions: 4 h
in vitro [14] = conditions: rat, liver microsomes

C[C@H]1CCN1c1nc(N2CC[C@H](CCC(=O)O)C2)c2c(n1)C(F)(F)CC2
Drug metabolism [1]: Metabolite_Notdetected
MRT last at 24 h [2]: 4.15 h
MRT last at 24 h [3]: 4.61 h
concentration at 24 h (in vivo): 11000 ng/g
Drug metabolism [4]: Metabolite_Notdetected
AUCt [5]: 5440 ng·h/mL
remaining at 4 h, 10 µM [6]: 98.5%
pIC50 (Ketohexokinase): 7.45
hepatocyte CLint at 2 h, 1 µM (in vitro [7]): < 0.96 µL/min/1e6 cells
pIC50 (Cytochrome P450 3A4): < 4.52
bioavailability [8]: 54.6%
fraction unbound (in vitro [9]): 0.025
pIC50 (Cytochrome P450 2C9): < 4.52
Drug metabolism [10]: Metabolite_Notdetected
pIC50 (Cytochrome P450 2D6): < 5.00
hepatocyte CLint at 2 h, 1 µM (in vitro [11]): < 0.96 µL/min/1e6 cells
AUC [12]: 34100 ng·h/mL
Drug metabolism [13]: Metabolite_Notdetected
microsomal CLint at 2 h, 1 µM (in vitro [14]): < 6.4 µL/min/mg
